# What was measured:
# [1] = tested on: IPOHE (Ipomoea hederacea); test: Postemergence herbicidal evaluation; type: in vivo, (L.) Jacq.; conditions: postemergence
# Method in brief: (§1)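 Seedlings grown about two weeks in flats, sprayed, then kept under standard greenhouse care. Rated visually 4–5 weeks after treatment on a 0–9 scale (stand, vigour, malformation, size, chlorosis, overall appearance) relative to untreated control; repeat tests averaged.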
# [2] = tested on: ECHCG (Echinochloa crus-galli); test: Postemergence herbicidal evaluation; type: in vivo, (L.) Beau; conditions: postemergence
# Method in brief: as §1
# SETVI (Setaria viridis) [3] = test: Postemergence herbicidal evaluation; type: in vivo, (L.) Beau; conditions: postemergence
# Method in brief: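 Ratings use a 0-9 visual scale covering stand, vigor, malformation, size, chlorosis and appearance versus a control, scored 4-5 weeks post-spray. Roughly two-week-old seedlings received about 0.0040-1.000 kg/ha active, applied in 50/50 acetone/water with 0.5% TWEEN 20. Multiple tests per compound were averaged.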
# [4] = tested on: GLXMAW (Soybean, Williams); test: Postemergence herbicidal evaluation; type: in vivo, Glycine max, (L.) Merr. cv Williams; conditions: postemergence
# Method in brief: as §1
# ORYSAT (Rice, Tebonnet) [5] = test: Postemergence herbicidal evaluation; type: in vivo, Oryza sativa, (L.) Tebonnet; conditions: postemergence
# Method in brief: as §1
# [6] = tested on: TRZAWR (Wheat, Winter, cv Riband); test: Postemergence herbicidal evaluation; type: in vivo, Triticum aestivum; conditions: postemergence
# Method in brief: as §1
# ZEAMX (Corn, Field) = test: Postemergence herbicidal evaluation; type: in vivo, Zea mays, L.; conditions: postemergence
# Method in brief: as §1
# [7] = tested on: ABUTH (Abutilon theophrasti); test: Preemergence herbicidal evaluation; type: in vivo, Medic.; conditions: rated 4-5 weeks after treatment
# [8] = tested on: AMBEL (Ambrosia artemisifolia); test: Preemergence herbicidal evaluation; type: in vivo, L.; conditions: rated 4-5 weeks after treatment
# Method in brief: (§2)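 Scores (0–9) reflect visual comparison with control plants for stand, vigor, malformation, size and chlorosis. Seeds in potting soil received a post-planting spray of compound in aqueous acetone and grew in a greenhouse until assessment 4–5 weeks later.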
# [9] = tested on: CASOB (Cassia obtusifolia); test: Preemergence herbicidal evaluation; type: in vivo, L.; conditions: rated 4-5 weeks after treatment
# Method in brief: as §2
# [10] = tested on: CHEAL (Chenopodium album); test: Preemergence herbicidal evaluation; type: in vivo, L.; conditions: rated 4-5 weeks after treatment
# Method in brief: as §2
# GALAP (Galium aparine) = test: Preemergence herbicidal evaluation; type: in vivo; conditions: rated 4-5 weeks after treatment
# Method in brief: as §2
# [11] = tested on: ECHCG (Echinochloa crus-galli); test: Preemergence herbicidal evaluation; type: in vivo, (L.) Beau; conditions: rated 4-5 weeks after treatment
# Method in brief: as §2
# SETVI (Setaria viridis) [12] = test: Preemergence herbicidal evaluation; type: in vivo, (L.) Beau; conditions: rated 4-5 weeks after treatment
# Method in brief: as §2
# ORYSAT (Rice, Tebonnet) [13] = test: Preemergence herbicidal evaluation; type: in vivo, Oryza sativa, (L.) Tebonnet; conditions: rated 4-5 weeks after treatment
# [14] = tested on: TRZAWR (Wheat, Winter, cv Riband); test: Preemergence herbicidal evaluation; type: in vivo, Triticum aestivum; conditions: rated 4-5 weeks after treatment
# Method in brief: as §2
# [15] = tested on: ECHORC (Echinochloa oryzoides); test: Flooded paddy, preemergence weed control; type: in vivo, Echinochloa oryzoides (Ard.) Fritsch.; conditions: rated 3-4 weeks after treatment, 0-9 rating scale
# Method in brief: (§3)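 Scoring used a 0-9 visual scale relative to control. Before that, seeds or propagules were planted shallowly in silt loam and flooded to 1.5–3 cm, a depth maintained throughout, with greenhouse care during the test.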
# [16] = tested on: CYPSE (Cyperus serotinus); test: Flooded paddy, preemergence weed control; type: in vivo, Rottb.; conditions: rated 3-4 weeks after treatment, 0-9 rating scale
# Method in brief: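 Seeds or propagules were planted 0.5 cm deep in silt loam and flooded to 1.5–3 cm. Compounds in 50/50 v/v aqueous/acetone were pipetted into the flood water at about 0.0080 to 0.1250 kg/ha. After 3–4 weeks in the greenhouse, effect was rated visually on a 0–9 scale versus untreated control.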
# [17] = tested on: MOOVA (Monochoria vaginalis); test: Flooded paddy, preemergence weed control; type: in vivo, Presl.; conditions: rated 3-4 weeks after treatment, 0-9 rating scale
# Method in brief: as §3
smiles,measurement,setting,value
"Cn1c(C(F)(F)F)cc(=O)n(-c2ccc3snc(-c4nccs4)c3c2)c1=O [Compound 53, 1-methyl-3-[3-(2-thiazolyl)-1,2-benzisothiazol-5-yl]-6-(trifluoromethyl)uracil]",IPOHE herbicidal rating,[1]; rate 0.0320 kg/ha,8.0
same,IPOHE herbicidal rating,[1]; rate 0.0620 kg/ha,9.0
same,IPOHE herbicidal rating,[1]; rate 0.1250 kg/ha,9.0
same,ECHCG herbicidal rating,[2]; rate 0.0320 kg/ha,1.0
same,ECHCG herbicidal rating,[2]; rate 0.0620 kg/ha,2.0
same,ECHCG herbicidal rating,[2]; rate 0.1250 kg/ha,1.0
same,SETVI herbicidal rating,SETVI (Setaria viridis) [3]; rate 0.0320 kg/ha,2.5
same,SETVI herbicidal rating,SETVI (Setaria viridis) [3]; rate 0.0620 kg/ha,5.5
same,SETVI herbicidal rating,SETVI (Setaria viridis) [3]; rate 0.1250 kg/ha,9.0
same,GLXMAW herbicidal rating,[4]; rate 0.0320 kg/ha,6.8
same,GLXMAW herbicidal rating,[4]; rate 0.0620 kg/ha,8.3
same,GLXMAW herbicidal rating,[4]; rate 0.1250 kg/ha,8.0
same,ORYSAT herbicidal rating,"ORYSAT (Rice, Tebonnet) [5]; rate 0.0320 kg/ha",3.0
same,ORYSAT herbicidal rating,"ORYSAT (Rice, Tebonnet) [5]; rate 0.0620 kg/ha",3.5
same,ORYSAT herbicidal rating,"ORYSAT (Rice, Tebonnet) [5]; rate 0.1250 kg/ha",3.0
same,TRZAWR herbicidal rating,[6]; rate 0.0320 kg/ha,3.3
same,TRZAWR herbicidal rating,[6]; rate 0.0620 kg/ha,4.0
same,TRZAWR herbicidal rating,[6]; rate 0.1250 kg/ha,4.0
same,ZEAMX herbicidal rating,"ZEAMX (Corn, Field); rate 0.0320 kg/ha",4.5
same,ZEAMX herbicidal rating,"ZEAMX (Corn, Field); rate 0.0620 kg/ha",5.0
same,ZEAMX herbicidal rating,"ZEAMX (Corn, Field); rate 0.1250 kg/ha",5.5
same,Preemergence herbicidal rating ABUTH,[7]; Rate 0.0620 kg/ha,5.0
same,Preemergence herbicidal rating ABUTH,[7]; Rate 0.1250 kg/ha,7.5
same,Preemergence herbicidal rating ABUTH,[7]; Rate 0.2500 kg/ha,9.0
same,Preemergence herbicidal rating AMBEL,[8]; Rate 0.0620 kg/ha,4.0
same,Preemergence herbicidal rating AMBEL,[8]; Rate 0.1250 kg/ha,8.0
same,Preemergence herbicidal rating AMBEL,[8]; Rate 0.2500 kg/ha,8.5
same,Preemergence herbicidal rating CASOB,[9]; Rate 0.0620 kg/ha,0.0
same,Preemergence herbicidal rating CASOB,[9]; Rate 0.1250 kg/ha,1.0
same,Preemergence herbicidal rating CASOB,[9]; Rate 0.2500 kg/ha,3.0
same,Preemergence herbicidal rating CHEAL,[10]; Rate 0.0620 kg/ha,9.0
same,Preemergence herbicidal rating CHEAL,[10]; Rate 0.1250 kg/ha,9.0
same,Preemergence herbicidal rating CHEAL,[10]; Rate 0.2500 kg/ha,9.0
same,Preemergence herbicidal rating GALAP,GALAP (Galium aparine); Rate 0.0620 kg/ha,8.0
same,Preemergence herbicidal rating GALAP,GALAP (Galium aparine); Rate 0.1250 kg/ha,8.0
same,Preemergence herbicidal rating GALAP,GALAP (Galium aparine); Rate 0.2500 kg/ha,9.0
same,Preemergence herbicidal rating ECHCG,[11]; Rate 0.0620 kg/ha,2.0
same,Preemergence herbicidal rating ECHCG,[11]; Rate 0.1250 kg/ha,4.5
same,Preemergence herbicidal rating ECHCG,[11]; Rate 0.2500 kg/ha,8.5
same,Preemergence herbicidal rating SETVI,SETVI (Setaria viridis) [12]; Rate 0.0620 kg/ha,9.0
same,Preemergence herbicidal rating SETVI,SETVI (Setaria viridis) [12]; Rate 0.1250 kg/ha,9.0
same,Preemergence herbicidal rating SETVI,SETVI (Setaria viridis) [12]; Rate 0.2500 kg/ha,9.0
same,Preemergence herbicidal rating ORYSAT,"ORYSAT (Rice, Tebonnet) [13]; Rate 0.0620 kg/ha",1.0
same,Preemergence herbicidal rating ORYSAT,"ORYSAT (Rice, Tebonnet) [13]; Rate 0.1250 kg/ha",3.0
same,Preemergence herbicidal rating ORYSAT,"ORYSAT (Rice, Tebonnet) [13]; Rate 0.2500 kg/ha",5.0
same,Preemergence herbicidal rating TRZAWR,[14]; Rate 0.0620 kg/ha,1.0
same,Preemergence herbicidal rating TRZAWR,[14]; Rate 0.1250 kg/ha,3.5
same,Preemergence herbicidal rating TRZAWR,[14]; Rate 0.2500 kg/ha,5.0
same,"herbicidal rating, ECHORC",[15]; rate 0.0080 kg/ha,3.0
same,"herbicidal rating, ECHORC",[15]; rate 0.0320 kg/ha,9.0
same,"herbicidal rating, ECHORC",[15]; rate 0.1250 kg/ha,9.0
same,"herbicidal rating, CYPSE",[16]; rate 0.0320 kg/ha,3.0
same,"herbicidal rating, CYPSE",[16]; rate 0.1250 kg/ha,9.0
same,"herbicidal rating, MOOVA",[17]; rate 0.0080 kg/ha,9.0
same,"herbicidal rating, MOOVA",[17]; rate 0.0320 kg/ha,9.0
same,"herbicidal rating, MOOVA",[17]; rate 0.1250 kg/ha,9.0

# Reference: US6706663B2, “Herbicidal 3-heterocyclic substituted benzisothiazole and benzisoxazole compounds” (Wyeth, priority 2000, dated 2004)
